The target of the experiment is T1, human GPR43 receptor (hGPR43) (Homo sapiens, UniProt O15552).
T1 construct: expressed in transfected cells
T1 sequence (O15552 1-330): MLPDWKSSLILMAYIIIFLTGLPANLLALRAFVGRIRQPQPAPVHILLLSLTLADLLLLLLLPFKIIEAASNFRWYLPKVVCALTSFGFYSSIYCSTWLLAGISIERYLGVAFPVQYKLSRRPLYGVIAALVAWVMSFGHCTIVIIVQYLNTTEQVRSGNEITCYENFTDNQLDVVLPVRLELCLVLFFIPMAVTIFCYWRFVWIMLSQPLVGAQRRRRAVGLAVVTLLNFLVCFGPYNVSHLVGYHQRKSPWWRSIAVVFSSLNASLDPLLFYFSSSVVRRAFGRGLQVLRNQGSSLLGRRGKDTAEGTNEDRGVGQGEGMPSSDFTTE
The experiment is described as follows: GTPγS binding assay (SPA method). It is filed as biochemical. The following applies: membranes expressing hGPR43; assay performed in the presence of SCFA; read-out: EC50 (nM) in GTPγ35S assay. The text has this:
The following assay can be used for determination of GPR43 activation. When a GPCR is in its active state, either as a result of ligand binding or constitutive activation, the receptor couples to a G protein and stimulates the release of GDP and subsequent binding of GTP to the G protein. The alpha subunit of the G protein-receptor complex acts as a GTPase and slowly hydrolyses the GTP to GDP, at which point the receptor normally is deactivated. Activated receptors continue to exchange GDP for GTP. […] The assay uses the ability of GPCR to stimulate [^35S]GTPγS binding to membranes expressing the relevant receptors. The assay can, therefore, be used in the direct identification method to screen candidate compounds to endogenous or not endogenous GPCR.
Membrane extracts were prepared from cells expressing the human GPR43 receptor (hGPR43) as follows: the medium was aspirated and the cells were scraped from the plates in Ca^++ and Mg^++-free Phosphate-buffered saline (PBS). The cells were then centrifuged for 3 min at 1500 g and the pellets were resuspended in buffer A (15 mM Tris-HCl pH 7.5, 2 mM MgCl2, 0.3 mM EDTA, 1 mM EGTA) and homogenized in a glass homogenizer. […] Protein content was assayed by the Folin method.
The assay was performed in the presence of SCFA, and was used to determine the activity of the compounds of the invention.
The [^35S]GTPγS assay was incubated in 20 mM HEPES pH7.4, 100 mM NaCl, 10 μg/ml saponin, 30 mM of MgCl2, 10 μM of GDP, 5 μg membrane-expressing hGPR43, 250 μg of wheatgerm agglutinin beads (Amersham, ref: RPNQ001), a range concentration of compounds (from 30 μM to 1 nM) in a final volume of 100 μl for 30 min at room temperature. The SCFA propionate was used at 1 mM final concentration as positive control. The plates were then centrifuged for 10 minutes at 2000 rpm, incubated for 2 hours at room temperature and counted for 1 min in a scintillation counter (TopCount, PerkinElmer).
A general note: GTPγS is a poorly hydrolysed GTP analogue; its binding reports G protein activation.

The record followed here is patent publication US20110230477A1, “COMPOUNDS, PHARMACEUTICAL COMPOSITION AND METHODS FOR USE IN TREATING METABOLIC DISORDERS” (Euroscreen S.A., priority 2008, published 2011).

Molecules are shown by their SMILES.

What is called EC50 is the midpoint of the concentration-response curve. For the compound `O=C(O)C[C@@H](Cc1ccccc1)C(=O)Nc1ccc(-c2ccccc2Cl)cn1` [Compound 15, (R)-3-benzyl-4-(5-(2-chlorophenyl)pyridin-2-ylamino)-4-oxobutanoic acid], the EC50 was determined as 426 nM.
The same measure for `COc1ncc(-c2ccccc2-c2csc(N(C(=O)[C@@H](CC(=O)O)CC3CCCC3)C3CC3)n2)cc1F` [Compound 220, (R)-3-(cyclopentylmethyl)-4-(cyclopropyl(4-(2-(5-fluoro-6-methoxypyridin-3-yl)phenyl)thiazol-2-yl)amino)-4-oxobutanoic acid]: 27 nM; for `CN(C(=O)[C@H]1CC=CC[C@H]1C(=O)O)c1nc(-c2ccccc2Cl)cs1` (relative stereo) [Compound 100, cis-6-((4-(2-chlorophenyl)thiazol-2-yl)(methyl)carbamoyl)cyclohex-3-enecarboxylic acid]: 142 nM.
For the compound `CN(C(=O)[C@@H](CC(=O)O)Cc1ccccc1)c1nc(-c2ccccc2-c2ccc(N3CCCC3)nc2)cs1` [Compound 131, (R)-1-(5-(2-(2-(2-benzyl-3-carboxy-N-methylpropanamido)thiazol-4-yl)phenyl)pyridin-2-yl)pyrrolidin-1-ium 2,2,2-trifluoroacetate], the EC50 was determined as 96 nM.
On to `O=C(O)C[C@@H](CC1CCCC1)C(=O)N(CCO)c1nc(-c2cc(Cl)ccc2Cl)cs1` [Compound 172, (R)-3-(cyclopentylmethyl)-4-((4-(2,5-dichlorophenyl)thiazol-2-yl)(2-hydroxyethyl)amino)-4-oxobutanoic acid], for which the EC50 is 355 nM.
In the case of `CN(C(=O)[C@@H](CC(=O)O)Cc1ccccc1)c1nc(-c2ccccc2C2CC2)cs1` [Compound 144, (R)-3-benzyl-4-((4-(2-cyclopropylphenyl)thiazol-2-yl)(methyl)amino)-4-oxobutanoic acid], the EC50 came to 897 nM.
Consider `CC(C)C[C@H](CC(=O)O)C(=O)N(C)c1nc(-c2ccccc2Cl)cs1` [Compound 90, (R)-3-((4-(2-chlorophenyl)thiazol-2-yl)(methyl)carbamoyl)-5-methylhexanoic acid], for which the EC50 stood at 88 nM.
The figure for `O=C(O)C[C@@H](C(=O)Nc1nc(-c2ccccc2Cl)cs1)c1ccccc1` [Compound 92, (R)-4-(4-(2-chlorophenyl)thiazol-2-ylamino)-4-oxo-3-phenylbutanoic] is 249 nM; for `O=C(O)C[C@@H](CC1CCCCC1)C(=O)Nc1nc(-c2ccccc2Cl)cs1` [Compound 18, (R)-4-(4-(2-chlorophenyl)thiazol-2-ylamino)-3-(cyclohexylmethyl)-4-oxobutanoic acid] it is 104 nM; for `O=C(O)C[C@@H](Cc1ccccc1)C(=O)Nc1nc(-c2cc(Cl)ccc2Cl)cs1` [Compound 123, (R)-3-benzyl-4-((4-(2,5-dichlorophenyl)thiazol-2-yl)amino)-4-oxobutanoic acid] it is 134 nM.
The figure for `CN(C(=O)[C@@H](CC(=O)O)Cc1ccccc1)c1nc(-c2ccccc2-c2ccc(Cl)nc2)cs1` [Compound 108, (R)-3-benzyl-4-((4-(2-(6-chloropyridin-3-yl)phenyl)thiazol-2-yl)(methyl)amino)-4-oxobutanoic acid] is 305 nM; for `O=C(O)C[C@@H](Cc1ccccc1)C(=O)Nc1nc(-c2ccc(Cl)cc2Cl)cs1` [Compound 3, (R)-3-benzyl-4-(4-(2,4-dichlorophenyl)thiazol-2-ylamino)-4-oxobutanoic acid] it is 653 nM; for `Cc1nc(CC(CC(=O)O)C(=O)N(C)c2nc(-c3ccccc3Cl)cs2)cs1` (stereo not shown) [Compound 209, 4-((4-(2-chlorophenyl)thiazol-2-yl)(methyl)amino)-3-((2-methylthiazol-4-yl)methyl)-4-oxobutanoic acid] it is 2470 nM.
Regarding `CN(C(=O)[C@@H](CC(=O)O)CC1CCCO1)c1nc(-c2ccccc2Cl)cs1` (stereo partly drawn) [Compound 154, (3R)-4-((4-(2-chlorophenyl)thiazol-2-yl)(methyl)amino)-4-oxo-3-((tetrahydrofuran-2-yl)methyl)butanoic acid], the EC50 was 832 nM.
The figure for `CN(C(=O)[C@@H](CC(=O)O)Cc1ccccc1)c1nc(-c2ccccc2-c2ccsc2)cs1` [Compound 107, (R)-3-benzyl-4-(methyl(4-(2-(thiophen-3-yl)phenyl)thiazol-2-yl)amino)-4-oxobutanoic acid] is 361 nM.
With `Cc1cc(CC(CC(=O)O)C(=O)N(C)c2nc(-c3ccccc3Cl)cs2)no1` (stereo not shown) [Compound 210, 4-((4-(2-chlorophenyl)thiazol-2-yl)(methyl)amino)-3-((5-methylisoxazol-3-yl)methyl)-4-oxobutanoic acid], the EC50 is 2680 nM.
The same measure for `CN(C(=O)[C@@H](CC(=O)O)Cc1ccccc1)c1nc(-c2ccccc2-c2cnc3c(c2)CCC(=O)N3C)cs1` [Compound 216, (R)-3-benzyl-4-(methyl(4-(2-(8-methyl-7-oxo-5,6,7,8-tetrahydro-1,8-naphthyridin-3-yl)phenyl)thiazol-2-yl)amino)-4-oxobutanoic acid]: 341 nM; for `CN(C(=O)[C@@H](CC(=O)O)Cc1ccccc1)c1nc(-c2ccccc2-c2ccc(N3CCCC3=O)nc2)cs1` [Compound 150, (R)-3-benzyl-4-(methyl(4-(2-(6-(2-oxopyrrolidin-1-yl)pyridin-3-yl)phenyl)thiazol-2-yl)amino)-4-oxobutanoic acid]: 353 nM.
The figure for `CN(C(=O)[C@@H](CC(=O)O)CC1CCCCC1)c1nc(-c2ccccc2Cl)cs1` [Compound 89, (R)-4-((4-(2-chlorophenyl)thiazol-2-yl)(methyl)amino)-3-(cyclohexylmethyl)-4-oxobutanoic acid] is 37 nM; for `COc1ncc(-c2ccc(Cl)cc2-c2csc(N(C(=O)[C@@H](CC(=O)O)CC3CCCC3)C3CC3)n2)cc1Cl` [Compound 223, (R)-4-((4-(5-chloro-2-(5-chloro-6-methoxypyridin-3-yl)phenyl)thiazol-2-yl)(cyclopropyl)amino)-3-(cyclopentylmethyl)-4-oxobutanoic acid] it is 87 nM.
As to `CN(C(=O)[C@@H](CC(=O)O)Cc1ccccc1)c1nc(-c2cccc(OC(F)F)c2)cs1` [Compound 164, (R)-3-benzyl-4-((4-(3-(difluoromethoxy)phenyl)thiazol-2-yl)(methyl)amino)-4-oxobutanoic acid], the EC50 is 161 nM.
As for `O=C(O)C[C@@H](Cc1ccccc1)C(=O)Nc1nc(-c2cccc(Cl)c2)cs1` [Compound 12, (R)-3-benzyl-4-(4-(3-chlorophenyl)thiazol-2-ylamino)-4-oxobutanoic acid], the EC50 came out at 424 nM.
As for `CN(C(=O)[C@@H](CC(=O)O)Cc1ccccc1)c1nc(-c2ccccc2Cl)c(F)s1` [Compound 60, (R)-3-benzyl-4-((4-(2-chlorophenyl)-5-fluorothiazol-2-yl)(methyl)amino)-4-oxobutanoic acid], the EC50 came to 95 nM.
For `O=C(O)C[C@@H](Cc1ccccc1)C(=O)N(CCOCc1ccccc1)c1nc(-c2ccccc2Cl)cs1` [Compound 201, (R)-3-benzyl-4-((2-(benzyloxy)ethyl)(4-(2-chlorophenyl)thiazol-2-yl)amino)-4-oxobutanoic acid], the EC50 worked out at 1360 nM.
The same measure for `O=C(O)C[C@@H](Cc1ccccc1)C(=O)Nc1nc(-c2ccccc2Cl)c(F)s1` [Compound 20, (R)-3-benzyl-4-(4-(2-chlorophenyl)-5-fluorothiazol-2-ylamino)-4-oxobutanoic acid]: 96 nM; for `CCN(C(=O)[C@@H](CC(=O)O)Cc1ccccc1)c1nc(-c2ccccc2Cl)cs1` [Compound 96, (R)-3-benzyl-4-((4-(2-chlorophenyl)thiazol-2-yl)(ethyl)amino)-4-oxobutanoic acid]: 249 nM.
Consider `Cc1sc(NC(=O)[C@@H](CC(=O)O)Cc2ccccc2)c(C(N)=O)c1-c1ccc(Cl)cc1Cl` [Compound 207, (3R)-3-benzyl-4-((3-carbamoyl-4-(2,4-dichlorophenyl)-5-methylthiophen-2-yl)amino)-4-oxobutanoic acid], for which the EC50 is 2910 nM.
For `CN(C(=O)[C@@H](CC(=O)O)Cc1ccccc1)c1nc(-c2ccccc2-c2ccc(N3CCOCC3)cc2)cs1` [Compound 132, (R)-4-(2′-(2-(2-benzyl-3-carboxy-N-methylpropanamido)thiazol-4-yl)-[1,1′-biphenyl]-4-yl)morpholin-4-ium 2,2,2-trifluoroacetate], the EC50 turned out to be 276 nM.
